Each structure is given as a SMILES string.

Among the data in EP4582413A1, “ARYLTETRAHYDROPYRIDINE COMPOUND AND PEST CONTROL AGENT” (priority 2022, dated 2024) are mortality and death rate values, retold here.

Holding throughout (type): in vivo
The subject of data set [1] is brown rice planthoppers (Nilaparvata lugens). Briefly: Insecticidal test for brown rice planthoppers. The note with it: Nilaparvata lugens, 144 h; 500 ppm chemical solution, rice leaf sheaths soaked, third-instar larvae, six days, 25°C; read-out: death rate. An outline of the steps:
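Rice leaf sheaths dipped ~10 s in 500 ppm compound solution (emulsion diluted in water with spreader), air-dried, then infested with five third-instar larvae per tube at 25 °C. Mortality scored after 6 days, death rate calculated, in duplicate.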

Data set [2] relates to green peach aphids (Myzus persicae). Put plainly: Insecticidal test for green peach aphids. The note with it: 500 ppm chemical solution sprinkled (2.5 mg/cm^2), wingless imagoes on leaf disc, six days, 25°C; for mortality at 500 µg/mL: Myzus persicae, foliar, 144 h, read-out: death rate; for death rate: 8640 min. As to the method:
Wet absorbent cotton was laid on each glass dish having an inner diameter of 3 cm, a Chinese olive leaf cut into a circle having a diameter of 3 cm was placed thereon, and four wingless green peach aphids (Myzus persicae) imagoes were released. After a day, a 10% by mass emulsion of the presently invented compound prepared according to the above formulation example for an emulsion was diluted with water containing a spreader to prepare a chemical solution having a concentration of 500 ppm. The chemical solution prepared was sprinkled (2.5 mg/cm^2) with a rotary tower sprinkler, and the dishes were capped and accommodated in a thermostatic room at 25°C. […] The test was carried out in duplicate.

Data set [3] has as its system western flower thrips (Frankliniella occidentalis). Put plainly: Insecticidal activity against western flower thrips. Conditions: Frankliniella occidentalis, 48 h; 500 ppm chemical solution sprinkled (2.5 mg/cm^2), larvae on common bean leaf, after 2 days; read-out: death rate. Put shortly: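 Bean leaf squares on wet filter paper inoculated with 20 larvae. Compound emulsion diluted with spreader-containing water to 500 ppm and sprayed at 2.5 mg/cm^2 by rotary tower. Run in duplicate.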

Data set [4] deals with cat fleas (Ctenocephalides felis). Briefly: whole plant or invertebrate. The note with it: 72 h, read-out: death rate. Put shortly:
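Glass containers (25 cm² inner surface) were coated with 250 µl of a 1000 ppm acetone solution, and the acetone was evaporated to leave a dry film. Five mixed-sex adult fleas were confined per container at 25°C. Mortality was scored after 3 days.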

The test system of data set [5] is diamondback moths (Plutella xylostella). Briefly: Insecticidal test for diamondback moths. Conditions: Plutella xylostella, 144 h; 500 ppm chemical solution, leaves soaked, third-instar larvae, six days, 25°C; read-out: death rate. An outline of the steps:
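Leaves dipped about 10 s in a 500 ppm aqueous dilution of an emulsion formulation with spreader, then air-dried. Five third-instar larvae released per dish and held at 25 °C. Tested in duplicate.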

Consider `O=C(Nc1ccc(F)cn1)C1=C(O)CC(c2nc(-c3ncco3)no2)NC1=O` (stereo not shown) [3-265], for which the mortality at 500 µg/mL in data set [1], in data set [2], in data set [3] and in data set [5] was not below 90% each time. Further, the mortality at 10 µg/cm2 in data set [4] is not below 50%.

In the case of `O=C(Nc1ccc(F)cn1)C1=C(O)CC(c2nc(-c3ccncc3Cl)no2)NC1=O` (stereo not shown) [3-236], the mortality at 500 µg/mL in data set [1], in data set [2], in data set [3] and in data set [5] was not below 90% throughout. Further, the mortality at 10 µg/cm2 in data set [4] is not below 50%.

Take `O=C(Nc1ccc(F)cc1)C1=C(O)CC(c2nc(-c3ccsc3)no2)NC1=O` (stereo not shown) [3-109]: the mortality at 500 µg/mL in data set [2], in data set [3] and in data set [5] was not below 90% each time. Besides, the mortality at 10 µg/cm2 in data set [4] is not below 50%.

Take `CC(=O)c1cccc(-c2cc(C3CC(O)=C(C(=O)Nc4ccc(F)cc4)C(=O)N3)ccc2C(F)(F)F)c1` (stereo not shown) [1-011]: the mortality at 500 µg/mL in data set [2], in data set [3] and in data set [5] was not below 90% each time. In addition, in data set [4], the mortality at 10 µg/cm2 was not below 50%.

Regarding `O=C(Nc1ccc(F)cc1)C1=C(O)CC(c2cnc(Cl)c(-c3cncc(F)c3)c2)NC1=O` (stereo not shown) [2-058], the mortality at 500 µg/mL in data set [1], in data set [2], in data set [3] and in data set [5] was not below 90% throughout. The mortality at 10 µg/cm2 in data set [4] is not below 50%.

For `COC(=O)c1ccc(NC(=O)C2=C(O)CC(c3cnc(Cl)c(-c4ccc(F)cc4)c3)NC2=O)cc1` (stereo not shown) [2-292], the mortality at 500 µg/mL in data set [2] was not below 90%.

Take `CS(=O)(=O)c1ccc(-c2cc(C3CC(O)=C(C(=O)Nc4ccc(F)cc4)C(=O)N3)ccc2C(F)(F)F)cc1` (stereo not shown) [1-019]: the mortality at 500 µg/mL in data set [2], in data set [3] and in data set [5] was not below 90% throughout. Further, the mortality at 10 µg/cm2 in data set [4] is not below 50%.

As for `O=C(Nc1ccc(F)cc1)C1=C(O)CC(c2nc(-c3cccc(F)c3F)no2)NC1=O` (stereo not shown) [3-033], the mortality at 500 µg/mL in data set [1], in data set [2] and in data set [5] was not below 90% each time. Further, the mortality at 10 µg/cm2 in data set [4] was not below 50%.

`O=C(Nc1cnc(Br)cn1)C1=C(O)CC(c2cnc(Cl)c(-c3cccnc3)c2)NC1=O` (stereo not shown) [2-099]: the mortality at 500 µg/mL in data set [1], in data set [2], in data set [3] and in data set [5] was not below 90% in each case. Also, the mortality at 10 µg/cm2 in data set [4] was not below 50%.

With `Cc1cccc(-c2cc(C3CC(O)=C(C(=O)Nc4cccc(S(C)(=O)=O)c4)C(=O)N3)cnc2Cl)c1` (stereo not shown) [2-285], the death rate in data set [2] is on record as not below 90%.

`O=C(Nc1ccc(F)cc1)C1=C(O)CC(c2ccc(C(F)(F)F)c(-c3ccoc3)c2)NC1=O` (stereo not shown) [1-015]: the mortality at 500 µg/mL in data set [2], in data set [3] and in data set [5] was not below 90% in each case. Moreover, the mortality at 10 µg/cm2 in data set [4] was not below 50%.

As for `O=C(Nc1nccs1)C1=C(O)CC(c2cnc(C(F)(F)F)c(-c3ccc(F)nc3)c2)NC1=O` (stereo not shown) [2-184], the mortality at 500 µg/mL in data set [1], in data set [2], in data set [3] and in data set [5] was not below 90% in each case. Moreover, in data set [4], the mortality at 10 µg/cm2 was not below 50%.

For `O=C(Nc1cc(F)ccn1)C1=C(O)CC(c2nc(-c3cccc(F)c3F)no2)NC1=O` (stereo not shown) [3-049], the mortality at 500 µg/mL in data set [1], in data set [2], in data set [3] and in data set [5] was not below 90% in each case. In addition, in data set [4], the mortality at 10 µg/cm2 is not below 50%.

In data set [2], `CN(C)c1ccc(-c2noc(C3CC(O)=C(C(=O)Nc4ccc(F)cn4)C(=O)N3)n2)cc1` (stereo not shown) [3-118] showed a death rate not below 90%.

Consider `CSc1cccc(NC(=O)C2=C(O)CC(c3cnc(Cl)c(-c4cccc(C)c4)c3)NC2=O)c1` (stereo not shown) [2-284], for which the death rate in data set [2] was not below 90%.

Regarding `O=C(Nc1cccc(Cl)c1F)C1=C(O)CC(c2nc(-c3ccnc(F)c3)no2)NC1=O` (stereo not shown) [3-248], the mortality at 500 µg/mL in data set [2] and in data set [5] was not below 90% throughout. Also, the mortality at 10 µg/cm2 in data set [4] was not below 50%.

Turning to `Cc1cccc(-c2cc(C3CC(O)=C(C(=O)Nc4cccnc4Cl)C(=O)N3)cnc2Cl)c1` (stereo not shown) [2-274], the mortality at 500 µg/mL in data set [2] and in data set [5] was not below 90% each time. For the same compound, the mortality at 10 µg/cm2 in data set [4] is not below 50%.

On to `CC(=O)c1ccc(-c2cc(C3CC(O)=C(C(=O)Nc4ccc(F)cc4)C(=O)N3)ccc2C(F)(F)F)cc1` (stereo not shown) [1-012], for which the mortality at 500 µg/mL in data set [2] was not below 90%. Besides, the mortality at 10 µg/cm2 in data set [4] is not below 50%.

Take `O=C(Nc1ccc(F)cc1)C1=C(O)CC(c2cncc(-c3cccc(C(F)(F)F)c3)c2)NC1=O` (stereo not shown) [2-003]: the mortality at 500 µg/mL in data set [2] was not below 90%.

With `CSc1ccccc1-c1cc(C2CC(O)=C(C(=O)Nc3ccc(F)cc3)C(=O)N2)ccc1C(F)(F)F` (stereo not shown) [1-008], the mortality at 500 µg/mL in data set [2], in data set [3] and in data set [5] was not below 90% throughout. The mortality at 10 µg/cm2 in data set [4] was not below 50%.

In the case of `N#Cc1ccc(NC(=O)C2=C(O)CC(c3cnc(Cl)c(-c4cccnc4)c3)NC2=O)cn1` (stereo not shown) [2-097], the mortality at 500 µg/mL in data set [1], in data set [2] and in data set [5] was not below 90% in each case. Further, in data set [4], the mortality at 10 µg/cm2 was not below 50%.

As to `COc1cccc(-c2cc(C3CC(O)=C(C(=O)Nc4ccc(F)cc4)C(=O)N3)ccc2C(F)(F)F)c1` (stereo not shown) [1-017], the mortality at 500 µg/mL in data set [2], in data set [3] and in data set [5] was not below 90% throughout. Moreover, the mortality at 10 µg/cm2 in data set [4] is not below 50%.

In the case of `CN(C)c1ccc(-c2noc(C3CC(O)=C(C(=O)Nc4ccc(F)cc4)C(=O)N3)n2)cc1` (stereo not shown) [3-117], the mortality at 500 µg/mL in data set [2] is not below 90%.

In the case of `CCCOc1ccc(-c2cncc(C3CC(O)=C(C(=O)Nc4ccc(F)cc4)C(=O)N3)c2)cn1` (stereo not shown) [2-007], the death rate in data set [2] is listed as not below 90%.

With `O=C(Nc1ccc(F)cc1)C1=C(O)CC(c2ccc(C(F)(F)F)c(-c3ccccc3)c2)NC1=O` (stereo not shown) [1-004], the mortality at 500 µg/mL in data set [2] and in data set [5] was not below 90% throughout. Besides, the mortality at 10 µg/cm2 in data set [4] was not below 50%.

For the compound `CSc1ccc(-c2cc(C3CC(O)=C(C(=O)Nc4ccc(F)cc4)C(=O)N3)ccc2C(F)(F)F)cc1` (stereo not shown) [1-009], the mortality at 500 µg/mL in data set [2], in data set [3] and in data set [5] was not below 90% throughout. Moreover, the mortality at 10 µg/cm2 in data set [4] was not below 50%.

Turning to `O=C(Nc1ccc(F)cc1)C1=C(O)CC(c2ccc(C(F)(F)F)c(-c3ccccc3F)c2)NC1=O` (stereo not shown) [1-005], the mortality at 500 µg/mL in data set [2], in data set [3] and in data set [5] was not below 90% throughout. Also, in data set [4], the mortality at 10 µg/cm2 was not below 50%.

Consider `Cc1cccc(-c2noc(C3CC(O)=C(C(=O)Nc4cc(F)ccn4)C(=O)N3)n2)c1` (stereo not shown) [3-053], for which the mortality at 500 µg/mL in data set [1], in data set [2] and in data set [5] was not below 90% each time. Besides, the mortality at 10 µg/cm2 in data set [4] was not below 50%.

In data set [2], `Cc1ccc(NC(=O)C2=C(O)CC(c3nc(-c4ncccn4)no3)NC2=O)nc1` (stereo not shown) [3-167] returned a death rate not below 90%.

Take `O=C(Nc1cnc(Cl)cn1)C1=C(O)CC(c2cnc(Cl)c(-c3cccnc3)c2)NC1=O` (stereo not shown) [2-098]: the mortality at 500 µg/mL in data set [1], in data set [2] and in data set [5] was not below 90% in each case. Further, in data set [4], the mortality at 10 µg/cm2 is not below 50%.

Regarding `C#Cc1ccc(NC(=O)C2=C(O)CC(c3cnc(Cl)c(-c4cccc(C)c4)c3)NC2=O)cc1` (stereo not shown) [2-280], the mortality at 500 µg/mL in data set [2], in data set [3] and in data set [5] was not below 90% throughout. Also, the mortality at 10 µg/cm2 in data set [4] is not below 50%.

On to `COc1ccccc1-c1cc(C2CC(O)=C(C(=O)Nc3ccc(F)cc3)C(=O)N2)ccc1C(F)(F)F` (stereo not shown) [1-016], for which the mortality at 500 µg/mL in data set [2], in data set [3] and in data set [5] was not below 90% in each case. Further, the mortality at 10 µg/cm2 in data set [4] was not below 50%.

`N#Cc1ccc(-c2cc(C3CC(O)=C(C(=O)Nc4ccc(F)cc4)C(=O)N3)ccc2C(F)(F)F)cc1` (stereo not shown) [1-023]: the mortality at 500 µg/mL in data set [2], in data set [3] and in data set [5] was not below 90% in each case. Moreover, the mortality at 10 µg/cm2 in data set [4] was not below 50%.
